Values quoted from earlier work in US20110039930A1 (Emisphere Technologies, Inc., priority 2009, published 2011).

Settings: bleeding, ulceration, perforation of the stomach or intestines

COc1ccc2cc(C(C)C(=O)O)ccc2c1 (stereo not shown) [Naproxen, 2-(6-methoxynaphthalen-2-yl)propanoic acid]
gastrointestinal adverse events: increased risk of serious gastrointestinal adverse events
